Experimental data as given in US20240325420A1, “COMPOSITION INCLUDING PAEONIFLORIN FOR PREVENTION OR TREATMENT OF CACHEXIA AND MUSCLE LOSS” (CHUNG ANG UNIVERSITY INDUSTRY ACADEMIC COOPERATION …, priority 2021, published 2024).

Experiments:
[1] = system: C2C12 myoblasts; experiment: Myotube differentiation of C2C12 myoblasts; assay type: cell-based
Experimental: C2C12 myoblasts were purchased from ATCC (Manassas, Virginia, USA) and cultured using DMEM containing 10% fetal bovine serum. After the cells reached 70% confluence, myotube differentiation was induced while the medium was replaced with DMEM containing 2% horse serum every two days. A negative control group was treated with […] of TNF-α, which inhibits myotube differentiation. While the myoblasts were treated with paeoniflorin at a concentration of 50 to 200 μM along with TNF-α, the degree of myotube differentiation was observed and the length of differentiated myotubes was measured using the Image J program.

[2] = system: TNF-α, IL-6 and IL-1β; experiment: Protein levels of pro-inflammatory cytokines in gastrocnemius muscle, Balb/c mice; assay type: in vivo; details: cisplatin-treated
Experimental: (§1) In addition, cisplatin-treated mice orally administered the same volume of distilled water were designated as the vehicle group. After completion of drug treatment, the mice of each group were euthanized with 10 mg/kg alfaxalone (Jurox, Rutherford, Australia). Blood was collected in test tubes containing EDTA, and centrifuged, and plasma was separated therefrom. Gastrocnemius and quadriceps skeletal muscles were dissected and weighed. The skeletal muscles were rapidly frozen in liquid nitrogen to be used for RT-qPCR, Western blotting, and ELISA.
(§2) The levels of TNF-α and interleukin (IL)-6 were measured using respective mouse ELISA kits (Invitrogen, Waltham, MA, USA). IL-1β and GDF-15 levels were measured using respective Quantikine ELISA kits (R&D Systems, Minneapolis, MN, USA).

[3] = system: C57BL/6 mice with Lewis lung carcinoma-induced cachexia; experiment: Muscle strength and endurance in C57BL/6 mice with Lewis lung carcinoma-induced cachexia; assay type: in vivo
Experimental: (§3) As the experimental animals, 4-week-old female C57BL/6 mice and Balb/c mice weighing 18 g to 20 g were purchased from Raon Bio (Yongin, Korea), acclimatized in the laboratory animal facility for one week, and then used in the experiment. During the experiment period, the animals were provided with solid feed and water ad libitum, and the breeding room was maintained at a temperature of 20° C. to 24° C. and a relative humidity of 55% to 65% with a 12-hr light/12-hr dark cycle.
(§4) Mice were divided into a control group and a cachexia-induced group, and the cachexia-induced group was subdivided into a tumor cell-injected group, a tumor cell-injected and existing drug (MA, megestrol acetate)-administered group, and tumor cell-injected and paeoniflorin (Pae)-administered groups. Each group consisted of 10 animals.
(§5) Each mouse of the control group was injected subcutaneously with 100 μL of saline solution. For the cachexia-induced groups, Lewis lung carcinoma cells (C57BL/6 mice) or colon-26 carcinoma cells (Balb/c mice) were injected subcutaneously into the flank area of each mouse at a dose of 10^6 cells/100 μL/mouse. […] After completion of 9 days of administration, the muscle strength of the mice was measured using a grip strength test device (Bioseb, USA), and the endurance of the mice was measured using a treadmill device (Columbus Instrument, USA).

[4] = system: Balb/c mice with colon-26 carcinoma-induced cachexia; experiment: Body weight and muscle mass in Balb/c mice with colon-26 carcinoma-induced cachexia; assay type: in vivo; details: colon-26 carcinoma-injected, paeoniflorin orally once daily for 9 days vs colon-26 carcinoma-injected group
Experimental: as §3, §4, §5
After completion of the experiment, the mice were euthanized, blood was collected therefrom, the body weight excluding tumors, and the weights of the hind limb gastrocnemius muscle and quadriceps muscle were measured. GDF-15 in the serum was quantified by ELISA.

[5] = system: TNF-α, IL-6, IL-1β, IL-1α, CCL2 and CCL5; experiment: mRNA levels of pro-inflammatory cytokines and chemokines in skeletal muscle by real-time PCR, C57BL/6 mice; assay type: in vivo; details: cisplatin-treated, Pae 10 and Pae 20 vs vehicle
Experimental: as §1
Total RNA was isolated from skeletal muscle using Qiazol (Qiagen, Germany), and then the mRNA levels of pro-inflammatory cytokines and muscle-specific ubiquitin E3 ligases (MuRF1 and MAFbx) were measured by real-time PCR.
The mRNA levels of pro-inflammatory cytokines such as TNF-α, IL-6, IL-1β, and IL-1α, as well as chemokines such as CCL2 and CCL5, in the skeletal muscle, were measured by real-time PCR.

[6] = system: GDF-15; experiment: Plasma GDF-15 by ELISA in mice with cisplatin-induced cachexia; assay type: in vivo; details: C57B/6 mice; cisplatin plus paeoniflorin-treated group vs cisplatin-treated group; FIG. 13B
Experimental: as §1, §2
The protein concentration of GDF-15 in the plasma was analyzed by ELISA.

[7] = system: C57BL/6 mice with cisplatin-induced cachexia; experiment: Body weight and muscle mass in cisplatin-treated C57BL/6 mice; assay type: in vivo
Experimental: The animal experiments were performed in accordance with internationally accepted principles for laboratory animal use and care, and the corresponding study protocol was reviewed and approved by the Institutional Animal Care and Use Committee (IACUC) at Chung-Ang University (approval #2021-00022). Four-week-old female C57BL/6 mice and Balb/c mice were purchased from Raonbio Inc. (Yongin, Korea) and were provided with standard laboratory diet and water ad libitum in the animal facility of Chung-Ang University. After a week of acclimation, the mice were intraperitoneally injected three times with 3 mg/kg/day cisplatin, suspended in 200 μL saline, every other day. Control group mice (sham-treated mice) were injected with the same volume of saline under the same regimen. The cisplatin-treated groups were orally administered paeoniflroin (Pae) or megestrol acetate (MA), suspended in 200 μL distilled water, every day until euthanasia.
Specifically, the cisplatin-treated groups were orally administered paeoniflorin (prepared in Example 1) at a dose of 5 (Pae 5 group), 10 (Pae 10 group), or 20 (Pae 20 group) mg/kg once daily for 9 days. The comparative drug-treated group was orally administered megestrol acetate (MA), which is currently most commonly prescribed for cancer cachexia patients in clinical practice, at a dose of 160 mg/kg (=800 mg [daily human dose]/60 kg [average human body weight]×12 [dose equivalent factor based on human:mouse body surface area ratio], once daily for 9 days.
as §1

C[C@@]12C[C@@]3(O)O[C@@H](O1)[C@]1(COC(=O)c4ccccc4)[C@H]3C[C@@]12O[C@@H]1O[C@H](CO)[C@@H](O)[C@H](O)[C@H]1O [paeoniflorin]
myotube differentiation ([1]; paeoniflorin 50 to 200 μM along with TNF-α, FIG. 19): promoted | myotube length ([1]; paeoniflorin-treated groups vs negative control group (TNF-α+Pae 0 μM), FIG. 20): significantly increased | TNF-α protein level in the gastrocnemius muscle ([2]; FIG. 9A): similarly obtained | IL-6 protein level in the gastrocnemius muscle ([2]; FIG. 9B): similarly obtained | IL-1β protein level in the gastrocnemius muscle ([2]; FIG. 9C): similarly obtained | muscle strength ([3]; C57BL/6 mice, Lewis lung carcinoma-injected, paeoniflorin orally for 9 days, FIG. 16A): significantly increased | endurance ([3]; C57BL/6 mice, Lewis lung carcinoma-injected, paeoniflorin orally for 9 days, FIG. 16B): significantly increased | effect on muscle function compared with megestrol acetate (MA) ([3]; Lewis lung carcinoma C57BL/6 mice, paeoniflorin 10 to 20 mg/kg/day vs megestrol acetate 160 mg/kg/day): better effect | body weight ([4]; FIG. 15A): significantly increased | weight of gastrocnemius muscle ([4]; FIG. 15B): significantly increased | weight of quadriceps muscle ([4]; FIG. 15C): significantly increased | TNF-α mRNA expression level in the muscle ([5]; FIG. 8A): decreased | IL-6 mRNA expression level in the muscle ([5]; FIG. 8B): decreased | IL-1β mRNA expression level in the muscle ([5]; FIG. 8C): decreased | IL-1α mRNA expression level in the muscle ([5]; FIG. 8D): decreased | CCL2 mRNA expression level in the muscle ([5]; FIG. 8E): decreased | CCL5 mRNA expression level in the muscle ([5]; FIG. 8F): decreased | plasma concentration of GDF-15 [6]: significantly decreased | cisplatin-induced weight loss (body weight) ([7]; cisplatin 3 mg/kg/day i.p. three times, paeoniflorin 10 or 20 mg/kg orally daily for 9 days, vs vehicle, FIG. 1A): attenuated | weight of gastrocnemius muscle (skeletal muscle mass) ([7]; cisplatin-treated, paeoniflorin 10 or 20 mg/kg orally daily, FIG. 1B): restored | weight of quadriceps muscle (skeletal muscle mass) ([7]; cisplatin-treated, paeoniflorin 10 or 20 mg/kg orally daily, FIG. 1C): restored
